Data reported in paper PMC5591244, “Novel selective, potent naphthyl TRPM8 antagonists identified through a combined ligand- and structure-based virtual screening approach” (Scientific Reports, 2017).
Like-named read-outs stand apart in the source and are kept apart here.

Experiments:
TRPM8 [1] = molecular target: T1, TRPM8 (Homo sapiens, UniProt Q7Z2W7); assay: Calcium mobilization assay (HTS and dose-response) on HEK-293/hTRPM8 cells; type: cell-based; details: for IC50: calcium mobilization
T1 construct: expressed in transfected cells
T1 sequence (Q7Z2W7 whole entry): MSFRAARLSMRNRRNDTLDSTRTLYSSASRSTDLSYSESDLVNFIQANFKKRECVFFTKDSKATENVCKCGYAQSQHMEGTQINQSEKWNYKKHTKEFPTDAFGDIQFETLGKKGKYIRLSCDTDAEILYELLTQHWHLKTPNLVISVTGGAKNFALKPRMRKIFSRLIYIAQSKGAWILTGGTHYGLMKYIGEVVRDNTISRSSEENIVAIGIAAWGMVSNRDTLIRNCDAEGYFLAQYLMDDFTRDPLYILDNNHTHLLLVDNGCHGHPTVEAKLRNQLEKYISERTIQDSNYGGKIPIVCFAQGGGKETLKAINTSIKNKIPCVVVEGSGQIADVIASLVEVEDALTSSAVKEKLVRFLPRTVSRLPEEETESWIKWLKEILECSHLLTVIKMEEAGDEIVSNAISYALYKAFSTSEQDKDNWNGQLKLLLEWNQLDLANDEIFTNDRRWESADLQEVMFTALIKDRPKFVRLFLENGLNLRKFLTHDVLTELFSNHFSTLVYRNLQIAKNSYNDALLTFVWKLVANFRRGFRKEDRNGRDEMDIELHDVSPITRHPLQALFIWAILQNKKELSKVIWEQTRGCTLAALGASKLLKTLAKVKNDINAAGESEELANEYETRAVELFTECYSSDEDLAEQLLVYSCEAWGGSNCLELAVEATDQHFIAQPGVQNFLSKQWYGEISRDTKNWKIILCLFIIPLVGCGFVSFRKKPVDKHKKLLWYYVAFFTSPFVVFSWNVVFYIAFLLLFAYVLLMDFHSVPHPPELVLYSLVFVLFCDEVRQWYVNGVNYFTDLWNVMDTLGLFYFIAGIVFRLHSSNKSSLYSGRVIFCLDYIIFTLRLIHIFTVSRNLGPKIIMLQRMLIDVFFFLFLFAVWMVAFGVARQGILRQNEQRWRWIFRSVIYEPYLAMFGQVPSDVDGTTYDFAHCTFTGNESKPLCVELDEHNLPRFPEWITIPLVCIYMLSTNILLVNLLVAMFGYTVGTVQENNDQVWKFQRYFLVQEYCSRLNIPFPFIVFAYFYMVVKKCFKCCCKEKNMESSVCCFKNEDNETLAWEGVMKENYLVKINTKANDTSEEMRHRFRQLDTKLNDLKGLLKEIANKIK
Method: All experiments were performed on HEK-293/hTRPM8 cells stably transfected with the human TRPM8 gene, except for site-directed mutagenesis analysis, which was performed on transient transfectants. In details, HEK-293 cells (ATCC, Manassas, Virginia) were transfected with the pcDNA3/hTRPM8 vector by electroporation (300 Volts, 950 µF) then selected with medium containing 0,8 mg/ml G418 for 10–15 days. Then the stable transfected pool underwent two rounds of limiting dilutions, in eight 96 well plates at a cell density of 1 cell/well, in order to obtain pure clones. The best responder clone was selected based on its response to 1 mM menthol in calcium mobilization experiments. HEK-293/hTRPM8 cells were maintained in EMEM (Minimum Essential Medium Eagle with Earl’s salts Balanced Salt Solution, LONZA) supplemented with 2 mM Ultraglutamine1 (Lonza), 1% Penicillin/Streptomycin (LONZA), 10% of Fetal Bovine Serum (Euroclone) and 0,4 mg/mL G418 (InvivoGen).
(§1) For calcium mobilization assays, cells were seeded at 10,000 cells/well in 384-well plates coated with poly-D-lysine (MATRIX black/clear bottom #4332-CPL, Thermo Scientific, Waltham, MA, USA) in complete medium.Twenty-four hours after seeding, the plates were washed with Tyrode’s buffer with a Bio-Tek-ELx405 Microplate Washer (Merck Millipore; Billerica, MA, USA), and then 10 µl/well of a solution containing the fluorescent Ca^2+ indicator Fluo-4 NW dye was added. Cells were incubated for 1 h at room temperature before test compounds were added at 3X the concentration with respect to the final wanted concentration to be tested with a FLIPR TETRA system (Molecular Devices, Sunnyvale, CA, USA). Calcium mobilization was monitored over a period of 5 min. A second injection of 10 µl/well of a reference agonist (icilin or Cooling agent 10) at 4X concentration in assay buffer was performed using the FLIPR TETRA system. Of note, for selectivity assays, the following agonists were used: 10 μM AITC (allyl isothiocyanate) for TRPA1; 100 nM Capsaicin for TRPV1; and 20 nM GSK1016790A for TRPV4.
After addition of the agonist, the fluorescence signal was recorded over the next 3 min. The bioactivity exerted by the compounds was expressed as a percentage of inhibition. The percentage scale is defined as follows: 100% inhibition was considered as the relative fluorescence units (RFUs) of the value of the MIN controls in the second injection (antagonist Capsazepine at IC100 = 50 µM) and 0% inhibition was considered as the RFU values of the value of the MAX controls in the second injection (Cooling agent 10 at EC80 = 30 µM). Data from four replicates were analyzed using GraphPad PRISM® software (version 5, GraphPad Software Inc.) to calculate the mean and standard error of the mean, to create sigmoidal concentration-response curves and to calculate IC50 values.

TRPM8 D802A = molecular target: T2, TRPM8 D802A (Homo sapiens, UniProt Q7Z2W7, D802A); assay: Calcium mobilization on transiently transfected TRPM8 D802A mutant; type: cell-based; details: Cooling agent 10 at EC80, D802A; read-out: pIC50, inhibition of Cooling agent 10 activation, D802A (converted)
T2 construct: expressed in transfected cells; host or cells: HEK-293, transient (Lipofectamine 2000)
T2 sequence (Q7Z2W7 whole entry D802A): as the sequence (Q7Z2W7 whole entry) above, with D802A counted along it
From the text: Single point mutations were introduced in the hTRPM8-coding sequence, and the mutated TRPM8 was cloned as N-terminal c-myc tagged version into the pcDNA3 expression vector. This was done in that way that the single variations could be easily swapped from the myc-tagged expression construct into the non-tagged TRPM8 wild type expression construct.
The list of the variants is the following: variant 1, t2233g, a2234c (=Y745A); variant 2, a2236g, t2237c (=I746A); variant 3, a2395g, a2396c (=N799A) and variant 4, a2405c (D802A). The cloning project comprised three steps. First of all, a unique XhoI restriction site was inserted by site-directed mutagenesis (SDM) using DNA of the pcDNA3_TRPM8 construct as template. The 0.6 kb DNA fragment between the unique 5′ XhoI (introduced) and 3′ BamHI (already present) restriction sites comprised all positions of the four single point mutations and could be later used for their insertion as well as swapping between myc-tagged and non-tagged TRPM8 versions. In a second step, the c-myc tag sequence was introduced embedded within the TRPM8 coding sequence by PCR primers in two partially overlapping PCRs that were then joined by bridge PCR with the external 5′KpnI and internal 3′EcoRI primers and in the last step the point mutations 1 to 4 were inserted into pcDNA3_c-myc-TRPM8 by exchanging the wild type 5′XhoI-3′BamHI fragment (0.6 kb) with each of the corresponding variation fragment derived from synthetic DNA (provided by GeneArt, ThermoFisher Scientific).The myc-tagged constructs were transiently transfected in HEK-293 cells with Lipofectamine 2000 (Invitrogen) according to the manufacturer’s protocol. The pcDNA vectors containing the wt myc-tagged TRPM8 gene and the empty pcDNA3 (mock) were separately transfected into HEK-293 cells as controls. […] The obtained data from at least four wells (as replicates) were analyzed with GraphPad PRISM® software (version 5, GraphPad Software Inc.) to calculate the mean and standard error of the mean[58], to create sigmoidal concentration-response curves and to calculate IC50 values.

TRPV4 = TRPV4 (Homo sapiens, UniProt Q9HBA0); assay: Selectivity calcium mobilization assay, TRPV4; type: cell-based; details: agonist 20 nM GSK1016790A
TRPV4, sequence (Q9HBA0 whole entry, species assumed): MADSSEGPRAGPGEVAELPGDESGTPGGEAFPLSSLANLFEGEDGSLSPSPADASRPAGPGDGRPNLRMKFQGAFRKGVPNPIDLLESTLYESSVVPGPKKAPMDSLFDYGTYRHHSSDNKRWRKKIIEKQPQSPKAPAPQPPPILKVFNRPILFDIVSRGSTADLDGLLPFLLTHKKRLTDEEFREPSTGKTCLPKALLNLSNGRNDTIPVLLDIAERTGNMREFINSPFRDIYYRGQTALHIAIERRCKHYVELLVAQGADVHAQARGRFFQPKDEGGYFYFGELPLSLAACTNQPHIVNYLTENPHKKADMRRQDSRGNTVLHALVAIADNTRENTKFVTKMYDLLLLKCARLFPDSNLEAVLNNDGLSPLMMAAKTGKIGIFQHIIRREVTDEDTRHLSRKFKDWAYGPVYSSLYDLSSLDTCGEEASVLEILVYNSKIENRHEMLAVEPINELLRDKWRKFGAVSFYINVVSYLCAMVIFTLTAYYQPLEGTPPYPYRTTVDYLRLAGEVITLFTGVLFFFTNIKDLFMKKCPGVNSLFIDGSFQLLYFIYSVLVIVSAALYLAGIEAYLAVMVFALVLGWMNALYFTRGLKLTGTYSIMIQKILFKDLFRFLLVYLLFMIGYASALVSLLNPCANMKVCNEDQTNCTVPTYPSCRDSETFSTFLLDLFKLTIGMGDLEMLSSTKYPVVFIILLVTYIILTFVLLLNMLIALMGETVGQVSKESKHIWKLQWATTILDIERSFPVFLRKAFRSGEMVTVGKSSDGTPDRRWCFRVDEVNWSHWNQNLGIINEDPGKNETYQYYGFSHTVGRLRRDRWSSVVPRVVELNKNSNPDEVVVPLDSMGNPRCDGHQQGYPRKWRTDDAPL
Method: as §1

TRPM8 [2] = molecular target: T1, TRPM8; assay: Schild regression versus icilin; type: cell-based; details: data not shown
Method: Compound 1 was also tested in schild regression experiments[65] and compared with icilin and cooling agent (data not shown) to better characterize its mechanism of action. In these experiments, seven points for dose-response curves with icilin at seven different concentrations were analyzed.

[3] = Preliminary PK/ADMET study; details: in vivo proof of concept; Table S3 not available
Method: To assess the activity of compound 1 in preclinical models of painful urologic syndromes as OBS we used an isovolumetric rat bladder animal model. A preliminary PK/ADMET study was conducted to assess the behaviour of compound 1 in vivo (Table S3).

- pIC50 (TRPM8 [1]; HTS campaign activity determination, Fig. 4): 7.15
- IC50 (TRPM8 [1]; agonist Cooling agent 10, read-out: pIC50 with Cooling agent 10 (converted)): 41.7 nM
- IC50 (TRPM8 [1]; agonist icilin, read-out: pIC50 with icilin (converted)): 58.9 nM
- IC50 (TRPM8 D802A): 3160 nM
- Activity on TRPV4 (TRPV4): completely inactive
- Binding mechanism by Schild regression (TRPM8 [2]): orthosteric binding mechanism
- PK/ADME properties [3]: adequate
Structure (SMILES): Clc1c(OCCNCc2ccco2)ccc2ccccc12 [Compound 1]
